# Data taken from patent US8889732B2, “Fused heterocyclic compounds and thrombopoietin receptor activators” (Nissan Chemical Industries, Ltd., priority 2009, dated 2014).
# Test system: UT7/EPO
# Assay: Proliferation of mother cell line UT7/EPO (no c-mpl)
# Assay type: cell-based, human
# Conditions: UT7/EPO cells without c-mpl
# Method: (§1) UT7/EPO-mpl is a stable transformed cell line obtained by introducing into human leukemic cell line UT7/EPO a vector that induces expression of human thrombopoietin receptor (c-mpl) under control of cytomegalovirus immediate-early promoter by the method of Takatoku et al. (J. Biol. Chem., 272:7259-7263 (1997)). […] These two cell lines were subcultured in IMDM (Invitrogen) containing 10% fetal bovine serum (Thermo Electron or BioWest) using a CO2 incubator (5% CO2, 37° C.).
# The subcultured cells described above were washed twice with PBS and suspended in IMDM containing 10% fetal bovine serum at a cell density of 6×10^4 cells/ml. The cell suspension was transferred to a 96-well tissue culture plate (CORNING) in 100-μl aliquots. Then either thrombopoietin (Pepro Tech EC) or the compound of Synthetic Examples dissolved in dimethyl sulfoxide were diluted 83-fold with IMDM containing 10% fetal bovine serum and added to the aforementioned cell suspension in 20-μl aliquots. The cell suspension was incubated in a CO2 incubator (5% CO2, 37° C.) for 4 days. Cell proliferation was assayed using WST-8 reagent (Kishida Chemical Co., Ltd.) according to instructions by the manufacturer. […] The formazan pigment generated was detected by measuring the absorbance at 450 nm with a 96-well microplate reader (Nihon Molecular Devices, Spectramax 190).
row,Molecule,"Effect on proliferation of UT7/EPO, the mother cell line"
1,"TPO: thrombopoietin (Pepro Tech EC), a cytokine consisting of 332 amino acids",no response

# Target: T1, human thrombopoietin receptor (c-mpl) (Homo sapiens, UniProt P40238)
# T1 construct: expressed in transfected cells
# T1 sequence (P40238 26-635): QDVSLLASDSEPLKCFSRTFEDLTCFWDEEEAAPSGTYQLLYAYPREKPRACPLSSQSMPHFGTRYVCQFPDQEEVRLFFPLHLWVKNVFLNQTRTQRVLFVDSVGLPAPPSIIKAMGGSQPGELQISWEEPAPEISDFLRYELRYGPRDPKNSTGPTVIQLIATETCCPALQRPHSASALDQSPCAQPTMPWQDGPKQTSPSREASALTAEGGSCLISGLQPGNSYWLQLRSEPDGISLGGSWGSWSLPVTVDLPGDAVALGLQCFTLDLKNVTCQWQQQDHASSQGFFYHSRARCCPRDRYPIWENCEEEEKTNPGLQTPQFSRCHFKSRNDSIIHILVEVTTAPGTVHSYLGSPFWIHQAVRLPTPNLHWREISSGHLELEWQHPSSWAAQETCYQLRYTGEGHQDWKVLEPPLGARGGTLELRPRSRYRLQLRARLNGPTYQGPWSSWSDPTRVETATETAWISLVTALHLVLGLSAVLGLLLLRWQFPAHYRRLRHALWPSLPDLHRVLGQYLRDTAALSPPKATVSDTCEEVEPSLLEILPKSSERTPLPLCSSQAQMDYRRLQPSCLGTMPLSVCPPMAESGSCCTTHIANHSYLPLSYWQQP
# Assay: Stimulation of proliferation of thrombopoietin-dependent cell line UT7/EPO-mpl (WST-8)
# Assay type: cell-based
# Conditions: UT7/EPO-mpl cells
# Method: The responses of thrombopoietin receptor to the compounds of Synthetic Examples of the present invention were assayed using a human leukemic cell line, UT7/EPO-mpl.
# as §1
# The subcultured cells described above were washed twice with PBS and suspended in IMDM containing 10% fetal bovine serum at a cell density of 6×10^4 cells/ml. The cell suspension was transferred to a 96-well tissue culture plate (CORNING) in 100-μl aliquots. Then either thrombopoietin (Pepro Tech EC) or the compound of Synthetic Examples dissolved in dimethyl sulfoxide were diluted 83-fold with IMDM containing 10% fetal bovine serum and added to the aforementioned cell suspension in 20-μl aliquots. The cell suspension was incubated in a CO2 incubator (5% CO2, 37° C.) for 4 days. Cell proliferation was assayed using WST-8 reagent (Kishida Chemical Co., Ltd.) according to instructions by the manufacturer. A 10-μl aliquot of 5 mM WST-8 reagent solution was added to each well of the tissue culture plate, and the plate was incubated at 37° C. for 4 hours. The formazan pigment generated was detected by measuring the absorbance at 450 nm with a 96-well microplate reader (Nihon Molecular Devices, Spectramax 190).
row,Molecule,Proliferation of thrombopoietin-responsive UT7/EPO-mpl cells
1,"TPO: thrombopoietin (Pepro Tech EC), a cytokine consisting of 332 amino acids",stimulated

# Same assay, conditions: concentration yielding growth rate corresponding to 50% of growth of UT-7/EPO-mpl in the presence of 10 ng/mL TPO; 4 days incubation, WST-8
row,Molecule,EC50
1,C/C(=N\NC(=O)c1ccc(C(=O)N2CCCC2)s1)c1csc(-c2ccc3c(c2)CCCC3)c1O [compound 34],2.43 nM
2,COC(=O)c1ccc(C(=O)N/N=C(\C)c2csc(-c3ccc4c(c3)CCCC4)c2O)s1 [compound 36],9.46 nM
3,COC(=O)c1ccc(C(=O)N/N=C(\C)c2csc(-c3ccc4c(c3)CCCC4)c2O)cc1 [compound 37],40.1 nM
4,C/C(=N\NC(=S)Nc1ccc(C(=O)O)c(Cl)c1)c1csc(-c2ccc3c(c2)CCO3)c1O [compound 39],43 nM
5,COC(=O)C1CCN(C(=S)N/N=C(\C)c2csc(-c3ccc4c(c3)CCC4)c2O)CC1 [compound 40],52.4 nM
6,C/C(=N\NC(=S)Nc1ccc(C(=O)O)c(Cl)c1)c1csc(-c2ccc3c(c2)CCC3)c1O [compound 41],6.79 nM
7,COC(=O)C1CCN(C(=S)N/N=C(\C)c2csc(-c3ccc4c(c3)CCCC4)c2O)CC1 [compound 42],48.8 nM
8,C/C(=N\NC(=S)Nc1ccc(C(=O)O)c(Cl)c1)c1csc(-c2ccc3c(c2)CCCC3)c1O [compound 43],4.8 nM
9,C/C(=N\NC(=O)c1ccc(C(=O)O)cc1)c1csc(-c2ccc3c(c2)CCO3)c1O [compound 46],94.7 nM
10,C/C(=N\NC(=O)c1ccc(C(=O)O)c([N+](=O)[O-])c1)c1csc(-c2ccc3c(c2)CCO3)c1O [compound 47],55.6 nM
11,C/C(=N\NC(=S)N1CCC(C(=O)O)CC1)c1csc(-c2ccc3c(c2)CCC3)c1O [compound 48],4.06 nM
12,C/C(=N\NC(=O)c1ccc(C(=O)O)s1)c1csc(-c2ccc3c(c2)CCC3)c1O [compound 49],3.28 nM
13,C/C(=N\NC(=O)c1ccc(C(=O)O)cc1)c1csc(-c2ccc3c(c2)CCC3)c1O [compound 50],1.76 nM
14,C/C(=N\NC(=O)c1ccc(C(=O)O)c([N+](=O)[O-])c1)c1csc(-c2ccc3c(c2)CCC3)c1O [compound 51],0.451 nM
15,C/C(=N\NC(=S)N1CCC(C(=O)O)CC1)c1csc(-c2ccc3c(c2)CCCC3)c1O [compound 52],3.71 nM
16,C/C(=N\NC(=O)c1ccc(C(=O)O)s1)c1csc(-c2ccc3c(c2)CCCC3)c1O [compound 53],1.25 nM
17,C/C(=N\NC(=O)c1ccc(C(=O)O)cc1)c1csc(-c2ccc3c(c2)CCCC3)c1O [compound 54],2.99 nM

row,Molecule,EC50
1,C/C(=N\NC(=O)c1ccc(C(=O)O)c([N+](=O)[O-])c1)c1csc(-c2ccc3c(c2)CCCC3)c1O [compound 55],0.396 nM
2,C/C(=N\NC(=S)Nc1ccc(C(=O)O)cc1)c1csc(-c2ccc3c(c2)CCO3)c1O [compound 56],57.3 nM
3,C/C(=N\NC(=S)Nc1ccc(C(=O)O)cc1)c1csc(-c2ccc3c(c2)CCC3)c1O [compound 58],5.76 nM
4,C/C(=N\NC(=S)Nc1cccc(C(=O)O)c1)c1csc(-c2ccc3c(c2)CCC3)c1O [compound 59],53.1 nM
5,C/C(=N\NC(=S)Nc1ccc(C(=O)O)cc1)c1csc(-c2ccc3c(c2)CCCC3)c1O [compound 60],5.8 nM
6,C/C(=N\NC(=S)Nc1cccc(-c2nnn[nH]2)c1)c1csc(-c2ccc3c(c2)CCCC3)c1O [compound 61],4.08 nM
7,C/C(=N\NC(=S)Nc1ccc(-c2nnn[nH]2)cc1)c1csc(-c2ccc3c(c2)CCCC3)c1O [compound 62],4.08 nM
8,C/C(=N\NC(=S)Nc1cccc(-c2nnn[nH]2)c1)c1csc(-c2ccc3c(c2)CCC3)c1O [compound 63],3.99 nM
9,C/C(=N\NC(=S)Nc1ccc(-c2nnn[nH]2)cc1)c1csc(-c2ccc3c(c2)CCC3)c1O [compound 64],4.42 nM
10,C/C(=N\NC(=S)Nc1cccc(-c2nnn[nH]2)c1)c1csc(-c2ccc3c(c2)CCO3)c1O [compound 65],5.65 nM
11,C/C(=N\NC(=S)Nc1ccc(-c2nnn[nH]2)cc1)c1csc(-c2ccc3c(c2)CCO3)c1O [compound 66],8.79 nM
12,C/C(=N\NC(=O)c1ccc(-c2nnn[nH]2)cc1)c1csc(-c2ccc3c(c2)CCCC3)c1O [compound 67],5.23 nM
13,C/C(=N\NC(=O)c1ccc(-c2nnn[nH]2)cc1)c1csc(-c2ccc3c(c2)CCC3)c1O [compound 68],22.5 nM
14,C/C(=N\NC(=O)c1ccc(C(=O)NCc2ccc(C(=O)NCCO)cc2)s1)c1csc(-c2ccc3c(c2)CCCC3)c1O [compound 69],0.357 nM
15,C/C(=N\NC(=O)c1ccc(C(=O)NCc2ccc(C(=O)NCCO)cc2)s1)c1csc(-c2ccc3c(c2)CCC3)c1O [compound 70],0.382 nM
16,C/C(=N\NC(=O)c1ccc(C(=O)NCc2ccc(C(=O)NCCO)cc2)s1)c1csc(-c2ccc3c(c2)CCO3)c1O [compound 71],3.97 nM
